According to ChEMBL document CHEMBL4339185 (Eur J Med Chem, 2019):
In brackets after ≈: the same amount, converted by molar mass.

Key:
Staphylococcus aureus [1] = assay: Antimicrobial activity against methicillin-resistant Staphylococcus aureus incubated for 18 hrs by serial microdilution method; format: functional
Staphylococcus aureus [2] = assay: Antimicrobial activity against Staphylococcus aureus ATCC 6538 incubated for 18 hrs by serial microdilution method; format: functional; conditions: ATCC 6538, 18 h
Staphylococcus aureus [3] = assay: Antimicrobial activity against MLSB-resistant Staphylococcus aureus incubated for 18 hrs by serial microdilution method; format: functional
[4] = system: Staphylococcus epidermidis; assay: Antimicrobial activity against Staphylococcus epidermidis ATCC 12228 incubated for 18 hrs by serial microdilution method; format: functional; conditions: ATCC 12228, 18 h
[5] = system: Staphylococcus epidermidis; assay: Antimicrobial activity against Staphylococcus epidermidis ATCC 49134 incubated for 18 hrs by serial microdilution method; format: functional; conditions: ATCC 49134, 18 h
Enterococcus faecalis = assay: Antimicrobial activity against Enterococcus faecalis ATCC 29212 incubated for 18 hrs by serial microdilution method; format: functional; conditions: ATCC 29212, 18 h
Escherichia coli = assay: Antimicrobial activity against Escherichia coli ATCC 25922 incubated for 18 hrs by serial microdilution method; format: functional; conditions: ATCC 25922, 18 h
[6] = Solubility of the compound in water at pH 7 by UV-vis spectrophotometric analysis; format: physicochemical
[7] = Lipophilicity, log P of the compound in octanol and water incubated for 1 h under shaking condition; format: physicochemical

| SMILES | MIC (Staphylococcus aureus [1]) [µg/mL] | MIC (Staphylococcus aureus [2]) [µg/mL] | MIC (Staphylococcus aureus [3]) [µg/mL] | MIC [4] [µg/mL] | MIC [5] [µg/mL] | MIC (Enterococcus faecalis) [µg/mL] | MIC (Escherichia coli) [µg/mL] | solubility [6] [µg/mL] | logP at 1 h [7] |
| --- | --- | --- | --- | --- | --- | --- | --- | --- | --- |
| CO[C@H]1/C=C/O[C@@]2(C)Oc3c(C)c(O)c4c(O)c(c(CN5CCN(C)C6(CCN(C)CC6)C5)c(O)c4c3C2=O)NC(=O)/C(C)=C\C=C\[C@H](C)[C@H](O)[C@@H](C)[C@@H](O)[C@@H](C)[C@H](OC(C)=O)[C@@H]1C | 0.125 (≈ 0.14 µM) | 0.25 (≈ 0.28 µM) | 0.125 (≈ 0.14 µM) | 0.0625 (≈ 0.07 µM) | 0.0625 (≈ 0.07 µM) | 2 (≈ 2.24 µM) | > 8 | 1830 (≈ 2050 µM) | 0.72 |
| CO[C@H]1/C=C/O[C@@]2(C)Oc3c(C)c(O)c4c(O)c(c(CNC5CCN(CC(=O)O)CC5)c(O)c4c3C2=O)NC(=O)/C(C)=C\C=C\[C@H](C)[C@H](O)[C@@H](C)[C@@H](O)[C@@H](C)[C@H](OC(C)=O)[C@@H]1C | 0.25 (≈ 0.288 µM) | 0.25 (≈ 0.288 µM) | 0.5 (≈ 0.576 µM) | 0.0625 (≈ 0.072 µM) | 0.0625 (≈ 0.072 µM) | > 8 | > 8 | > 100000 | -1.5 |
| CO[C@H]1/C=C/O[C@@]2(C)Oc3c(C)c(O)c4c(O)c(c(CNCCN5CCCC5=O)c(O)c4c3C2=O)NC(=O)/C(C)=C\C=C\[C@H](C)[C@H](O)[C@@H](C)[C@@H](O)[C@@H](C)[C@H](OC(C)=O)[C@@H]1C | 2 (≈ 2.39 µM) | 2 (≈ 2.39 µM) | 4 (≈ 4.77 µM) | 2 (≈ 2.39 µM) | 1 (≈ 1.19 µM) | > 8 | > 8 | 100 (≈ 119 µM) | 1.24 |
| CO[C@H]1/C=C/O[C@@]2(C)Oc3c(C)c(O)c4c(O)c(c(CN5CCN(c6ccncc6)CC5)c(O)c4c3C2=O)NC(=O)/C(C)=C\C=C\[C@H](C)[C@H](O)[C@@H](C)[C@@H](O)[C@@H](C)[C@H](OC(C)=O)[C@@H]1C | 2 (≈ 2.29 µM) | 2 (≈ 2.29 µM) | 2 (≈ 2.29 µM) | 0.5 (≈ 0.573 µM) | 0.5 (≈ 0.573 µM) | > 8 | > 8 | < 50 | 2.06 |
| CCS(=O)(=O)N1CCN(Cc2c3c(O)c4c(O)c(C)c5c(c4c2O)C(=O)[C@@](C)(O/C=C/[C@H](OC)[C@@H](C)[C@@H](OC(C)=O)[C@H](C)[C@H](O)[C@H](C)[C@@H](O)[C@@H](C)/C=C/C=C(/C)C(=O)N3)O5)CC1 | 0.5 (≈ 0.563 µM) | 0.5 (≈ 0.563 µM) | 0.5 (≈ 0.563 µM) | 0.25 (≈ 0.282 µM) | 0.25 (≈ 0.282 µM) | > 8 | > 8 | 1730 (≈ 1950 µM) | 1.41 |
| CO[C@H]1/C=C/O[C@@]2(C)Oc3c(C)c(O)c4c(O)c(c(CNC5CCN(S(C)(=O)=O)CC5)c(O)c4c3C2=O)NC(=O)/C(C)=C\C=C\[C@H](C)[C@H](O)[C@@H](C)[C@@H](O)[C@@H](C)[C@H](OC(C)=O)[C@@H]1C | 1 (≈ 1.13 µM) | 1 (≈ 1.13 µM) | 0.5 (≈ 0.563 µM) | 0.5 (≈ 0.563 µM) | 0.25 (≈ 0.282 µM) | > 8 | > 8 | < 50 | 2.34 |
| CO[C@H]1/C=C/O[C@@]2(C)Oc3c(C)c(O)c4c(O)c(c(/C=N/N5CCOCC5)c(O)c4c3C2=O)NC(=O)/C(C)=C\C=C\[C@H](C)[C@H](O)[C@@H](C)[C@@H](O)[C@@H](C)[C@H](OC(C)=O)[C@@H]1C | 0.5 (≈ 0.617 µM) | 1 (≈ 1.23 µM) | 1 (≈ 1.23 µM) | 0.25 (≈ 0.309 µM) | 0.25 (≈ 0.309 µM) | > 8 | > 8 | < 50 | 2.79 |
| CO[C@H]1/C=C/O[C@@]2(C)Oc3c(C)c(O)c4c(O)c(c(CNC5CCN(CC6CCCCC6)CC5)c(O)c4c3C2=O)NC(=O)/C(C)=C\C=C\[C@H](C)[C@H](O)[C@@H](C)[C@@H](O)[C@@H](C)[C@H](OC(C)=O)[C@@H]1C | 0.25 (≈ 0.276 µM) | 0.25 (≈ 0.276 µM) | 0.125 (≈ 0.138 µM) | 0.125 (≈ 0.138 µM) | 0.125 (≈ 0.138 µM) | 4 (≈ 4.41 µM) | > 8 | < 50 | 3.31 |
| CO[C@H]1/C=C/O[C@@]2(C)Oc3c(C)c(O)c4c(O)c(c(CNC5CCN(C(=O)OC(C)(C)C)CC5)c(O)c4c3C2=O)NC(=O)/C(C)=C\C=C\[C@H](C)[C@H](O)[C@@H](C)[C@@H](O)[C@@H](C)[C@H](OC(C)=O)[C@@H]1C | 0.5 (≈ 0.549 µM) | 0.5 (≈ 0.549 µM) | 0.5 (≈ 0.549 µM) | 0.25 (≈ 0.275 µM) | 0.25 (≈ 0.275 µM) | 4 (≈ 4.4 µM) | > 8 | < 50 | 2.8 |
| CO[C@H]1/C=C/O[C@@]2(C)Oc3c(C)c(O)c4c(O)c(c(CN5CCN(Cc6c(C)cc(C)cc6C)CC5)c(O)c4c3C2=O)NC(=O)/C(C)=C\C=C\[C@H](C)[C@H](O)[C@@H](C)[C@@H](O)[C@@H](C)[C@H](OC(C)=O)[C@@H]1C | 2 (≈ 2.15 µM) | 4 (≈ 4.31 µM) | 2 (≈ 2.15 µM) | 0.5 (≈ 0.539 µM) | 1 (≈ 1.08 µM) | > 8 | > 8 | < 300 | 1.82 |
| CO[C@H]1/C=C/O[C@@]2(C)Oc3c(C)c(O)c4c(O)c(c(CNC5CCCC(C(N)=O)C5)c(O)c4c3C2=O)NC(=O)/C(C)=C\C=C\[C@H](C)[C@H](O)[C@@H](C)[C@@H](O)[C@@H](C)[C@H](OC(C)=O)[C@@H]1C (some centres undefined) | 0.5 (≈ 0.587 µM) | 0.5 (≈ 0.587 µM) | 0.25 (≈ 0.293 µM) | 0.25 (≈ 0.293 µM) | 0.25 (≈ 0.293 µM) | > 8 | > 8 | 150 (≈ 176 µM) | 1.33 |
| CO[C@H]1/C=C/O[C@@]2(C)Oc3c(C)c(O)c4c(O)c(c(CN5CCC(NS(C)(=O)=O)CC5)c(O)c4c3C2=O)NC(=O)/C(C)=C\C=C\[C@H](C)[C@H](O)[C@@H](C)[C@@H](O)[C@@H](C)[C@H](OC(C)=O)[C@@H]1C | 2 (≈ 2.25 µM) | 4 (≈ 4.5 µM) | 2 (≈ 2.25 µM) | 0.5 (≈ 0.563 µM) | 0.5 (≈ 0.563 µM) | > 8 | > 8 | 36400 (≈ 41000 µM) | 0.31 |
| CO[C@H]1/C=C/O[C@@]2(C)Oc3c(C)c(O)c4c(O)c(c(/C=N/Nc5ccnc6cc(Cl)ccc56)c(O)c4c3C2=O)NC(=O)/C(C)=C\C=C\[C@H](C)[C@H](O)[C@@H](C)[C@@H](O)[C@@H](C)[C@H](OC(C)=O)[C@@H]1C | 0.25 (≈ 0.277 µM) | 0.25 (≈ 0.277 µM) | 0.125 (≈ 0.139 µM) | 0.125 (≈ 0.139 µM) | 0.125 (≈ 0.139 µM) | 8 (≈ 8.87 µM) | > 8 | < 300 | 2.1 |
| CO[C@H]1/C=C/O[C@@]2(C)Oc3c(C)c(O)c4c(O)c(c(CN5CCN(Cc6ccc(F)cc6)CC5)c(O)c4c3C2=O)NC(=O)/C(C)=C\C=C\[C@H](C)[C@H](O)[C@@H](C)[C@@H](O)[C@@H](C)[C@H](OC(C)=O)[C@@H]1C | 1 (≈ 1.11 µM) | 1 (≈ 1.11 µM) | 0.25 (≈ 0.277 µM) | 0.25 (≈ 0.277 µM) | 0.25 (≈ 0.277 µM) | 8 (≈ 8.85 µM) | > 8 | < 50 | 3.31 |
| CO[C@H]1/C=C/O[C@@]2(C)Oc3c(C)c(O)c4c(O)c(c(CNC56CC7CC(CC(C7)C5)C6)c(O)c4c3C2=O)NC(=O)/C(C)=C\C=C\[C@H](C)[C@H](O)[C@@H](C)[C@@H](O)[C@@H](C)[C@H](OC(C)=O)[C@@H]1C | 0.5 (≈ 0.581 µM) | 0.5 (≈ 0.581 µM) | 0.5 (≈ 0.581 µM) | 4 (≈ 4.65 µM) | 2 (≈ 2.32 µM) | 1 (≈ 1.16 µM) | > 8 | < 50 | 1.91 |
| CO[C@H]1/C=C/O[C@@]2(C)Oc3c(C)c(O)c4c(O)c(c(/C=N/N5CCCC5)c(O)c4c3C2=O)NC(=O)/C(C)=C\C=C\[C@H](C)[C@H](O)[C@@H](C)[C@@H](O)[C@@H](C)[C@H](OC(C)=O)[C@@H]1C | 0.25 (≈ 0.315 µM) | 0.25 (≈ 0.315 µM) | 0.5 (≈ 0.63 µM) | 0.25 (≈ 0.315 µM) | 0.25 (≈ 0.315 µM) | 4 (≈ 5.04 µM) | > 8 | < 300 | 3.13 |
